{
  "source": "patent US20060154936A1",
  "about": "“Use of n-'5-'4-(4-methylpiperaziomethyl)-benzoylamido!-2-methylphenyl!-4-(3-pyridyl)2-pyridine-amine for the treatment of pulmonary hypertension” (priority 2002, published 2006)",
  "test_system": "hypoxia-induced pulmonary hypertension",
  "assay": "Hypoxia-induced pulmonary hypertension in rats (hypobaric-hypoxic vs ambient air, 3 weeks)",
  "format": "in vivo, Spraque-Dawley rats",
  "details": "for % wall thickness (medial hypertrophy index, pulmonary artery) / RV/LV + S(%) (right ventricle/left ventricular + septum weight ratio) / mPAP (mean pulmonary arterial pressure): 50 mg/kg intraperitoneal once daily for 3 weeks; for mPAP (mean pulmonary arterial pressure): right cardiac catheterization",
  "description": "This study is designed to investigate the effects of PDGF receptor signal transduction blockade on the development of hypoxia-induced pulmonary hypertension using a PDGF receptor-selective tyrosine kinase inhibitor, e.g. COMPOUND I, COMPOUND I mesylate.\nThe methodology as described by Ortiz L A, Champion H C, Lasky J A and col.\nPulmonary arterial pressure (PAP) can be measured in anesthetized mice with the use of a single-lumen catheter (Nu-Med, Hopkinton, N.Y.). The catheter (145 mm in length, 0.25 mm OD) has a specially curved tip to facilitate passage through the right heart, main pulmonary artery, and the left or right pulmonary artery. Immediately after placement of the pulmonary catheter (30 min in average), pressure in the main pulmonary artery is measured with a pressure transducer (Schneider/Namic, Glenns Falls, N.Y.), and mean PAP is derived electronically and recorded continuously. For the determination of pulmonary arterial wedge pressure, the catheter is advanced to the left or right pulmonary artery and wedged with continuous measurement of the pressure waveform.\nLung morphology and evaluation of right ventricular hypertrophy can be performed as below. The heart is perfused with 0.9% NaCl to remove residual blood, and the right lung is fixed in situ for 2 h by intratracheal instillation of 10% neutral formalin (Sigma, St. Louis, Mo.) at a constant pressure of 30 cmH2O and was preserved in fixative for 24 h. Lung tissues are then sectioned sagittally and embedded in paraffin. Sections (4 μm thick) are generated and mounted on positively charged slides (Fisher Scientific, Pittsburgh, Pa.). Slides are stained with hematoxylin-eosin for light microscopic examination. Immediately after death, hearts are resected to evaluate right ventricular hypertrophy. The atria are removed up to the plane of the atrial-ventricular valves. The right ventricle (RV) free wall is then dissected free of the left ventricle (LV) and septum. The RV and LV plus septum are weighed and the RV-to-LV+septum ratio is calculated.\nTen Spraque-Dawley rats are exposed to hypobaric-hypoxic (HH) conditions and ten ambient air (AA) animals are used as controls. The rats in both conditions are randomized to receive intraperitoneal injections with either once daily COMPOUND I (50 mg/kg) or placebo for 3 weeks. Right cardiac catheterizations are used to evaluate the mean pulmonary arterial pressure (mPAP). Subsequently, the rats are sacrificed for the evaluation of their medial hypertrophy index (% wall thickness of the pulmonary artery), and right ventricular hypertrophy (right ventricle/left ventricular +septum weight ratio; RV/LV+S).",
  "data": [
    {"smiles": "Cc1ccc(NC(=O)c2ccc(CN3CCN(C)CC3)cc2)cc1Nc1nccc(-c2cccnc2)n1", "note": "[COMPOUND I]", "values": [
      {"measurement": "% wall thickness (medial hypertrophy index, pulmonary artery)", "setting": "ambient air (AA) rats", "result": "10.32 ± 0.33", "unit": "%"},
      {"measurement": "RV/LV + S(%) (right ventricle/left ventricular + septum weight ratio)", "setting": "ambient air (AA) rats", "result": "24.60 ± 1.08", "unit": "%"},
      {"measurement": "mPAP (mean pulmonary arterial pressure)", "setting": "ambient air (AA) rats", "result": "16.20 ± 1.93", "unit": "mmHg"},
      {"measurement": "% wall thickness (medial hypertrophy index, pulmonary artery)", "setting": "hypobaric-hypoxic (HH) rats", "result": "14.77 ± 0.73", "unit": "%"},
      {"measurement": "RV/LV + S(%) (right ventricle/left ventricular + septum weight ratio)", "setting": "hypobaric-hypoxic (HH) rats", "result": "35.85 ± 1.29", "unit": "%"},
      {"measurement": "mPAP (mean pulmonary arterial pressure)", "setting": "hypobaric-hypoxic (HH) rats", "result": "19.50 ± 1.32", "unit": "mmHg"},
      {"measurement": "lowering of the index of % wall thickness", "setting": "rats, 50 mg/kg i.p. once daily, 3 weeks, p=0.001", "result": 59, "unit": "%"},
      {"measurement": "reduction of hypoxic-induced pulmonary hypertension", "setting": "rats, 50 mg/kg i.p. once daily, 3 weeks, p=0.002", "result": 80, "unit": "%"},
      {"measurement": "reduction of RV hypertrophy", "setting": "rats, 50 mg/kg i.p. once daily, 3 weeks, p=0.006", "result": 46, "unit": "%"}
    ]}
  ]
}
